Source: paper PMC9031249, “New 3-Acyl Tetramic Acid Derivatives from the Deep-Sea-Derived Fungus Lecanicillium fusisporum” (Marine Drugs, 2022)
Read-outs that look alike come from different tables or passages of the source.

Assays:
NF-κB = NF-κB luciferase reporter assay in LPS-induced RAW264.7 cells; assay type: cell-based; conditions: treated 4 h, then LPS 100 ng/mL for 6 h, read-out: EC50, inhibition of NF-κB production
Method: The effects of 1–8 on LPS-induced NF-κB luciferase activity were detected by luciferase reporter gene assay as described earlier. Briefly, RAW264.7 cells, stably transfected with a NF-κB luciferase reporter construct, were treated with 1–8 (30 μM) and BAY11-7082 (NF-κB inhibitor, 5 μM) for 4 h, followed by stimulation with LPS (100 ng/mL^−1) for 6 h. The luciferase activity was determined using the luciferase assay system (Promega, Madison, WI, USA). The dose-dependent effects of 1–8 and BAY11-7082 on LPS induced NF-κB luciferase activity were detected by the same assay.

[1] = test system: NO production in LPS-induced RAW264.7 cells; design: method as in PMID 24016057, PMID 27976895; conditions: read-out: EC50, inhibition of NO production; cited from earlier work
[2] = LPS induced RAW264.7 cells stably transfected with NF-κB luciferase reporter
[3] = Mus musculus, RAW264.7, LPS induced RAW264.7 cells stably transfected with NF-κB luciferase reporter

| Compound | EC50 (NF-κB; [2]) [µM] | EC50 (NF-κB; [3]) [µM] | EC50 [1] [µM] |
| --- | --- | --- | --- |
| Cc1ccc(S(=O)(=O)/C=C/C#N)cc1 [BAY11-7082, reference compound] | 1.5 ± 1.4 |  |  |
| C/C=C/C1=CC=C/C(=C2\C(=O)CNC2=O)O1 [Vermelhotin] |  |  | 5.35 |
| pseurotin A3 |  |  | 34.5 |
| pseurotin G |  |  | 57 |

Further lines, with some results ahead:

| EC50 (NF-κB; [2]) [µM] | EC50 (NF-κB; [3]) [µM] | Compound | EC50 [1] [µM] |
| --- | --- | --- | --- |
|  | 18.5 ± 1.21 | CC(C)=C1NC(=O)C(O)(C2C=CCC(C)O2)C1=O (stereo not drawn) [Compound 1, Lecanicilliumin A] |  |
| 25.8 ± 1.3 |  | CC(C)=C1NC(=O)C(O)(C2C=CCC(C)O2)C1=O (stereo not drawn) [Compound 2, Lecanicilliumin B] |  |
|  | 23.1 ± 1.26 | COC1CC(C2(O)C(=O)NC(=C(C)C)C2=O)CC(C)O1 (stereo not drawn) [Compound 5, Lecanicilliumin E] |  |
| 24.7 ± 1.19 |  | COC1CC(C2(O)C(=O)NC(=C(C)C)C2=O)CC(C)O1 (stereo not drawn) [Compound 6, Lecanicilliumin F] |  |
|  | 26.5 ± 1.12 | CC(C)=C1NC(=O)C(O)(CC=CCC(C)O)C1=O (stereo not drawn) [Compound 7, Lecanicilliumin G] |  |
